Data published in article PMC4899784, “LTP-1, a novel antimitotic agent and Stat3 inhibitor, inhibits human pancreatic carcinomas in vitro and in vivo” (Scientific Reports, 2016).

Experiments:
[1] = molecular target: T1, tubulin (α/β-tubulin heterodimer) (Sus scrofa, UniProt P02550+P02554); assay: cell-free tubulin polymerization assay (absorbance at […] nm), inhibition; format: biochemical
T1 construct: gene TUBA1A; with α/β-tubulin heterodimer

[2] = molecular target: T1, tubulin (α/β-tubulin heterodimer); assay: cell-free tubulin polymerization assay (absorbance at […] nm), enhancement; format: biochemical

T1 sequence (P02550 whole entry): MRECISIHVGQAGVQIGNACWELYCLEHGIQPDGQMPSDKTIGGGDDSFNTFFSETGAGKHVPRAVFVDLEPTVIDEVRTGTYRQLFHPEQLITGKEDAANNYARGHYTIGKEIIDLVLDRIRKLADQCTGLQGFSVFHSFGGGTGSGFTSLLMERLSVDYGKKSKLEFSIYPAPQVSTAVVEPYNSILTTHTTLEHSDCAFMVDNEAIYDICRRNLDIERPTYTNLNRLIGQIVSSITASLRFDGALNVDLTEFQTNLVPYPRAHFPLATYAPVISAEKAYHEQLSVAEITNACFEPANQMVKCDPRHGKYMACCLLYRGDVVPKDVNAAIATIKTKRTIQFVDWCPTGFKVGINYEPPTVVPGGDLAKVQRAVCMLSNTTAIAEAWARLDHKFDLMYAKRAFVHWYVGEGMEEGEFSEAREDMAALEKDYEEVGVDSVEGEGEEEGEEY
T1 sequence (P02554 whole entry): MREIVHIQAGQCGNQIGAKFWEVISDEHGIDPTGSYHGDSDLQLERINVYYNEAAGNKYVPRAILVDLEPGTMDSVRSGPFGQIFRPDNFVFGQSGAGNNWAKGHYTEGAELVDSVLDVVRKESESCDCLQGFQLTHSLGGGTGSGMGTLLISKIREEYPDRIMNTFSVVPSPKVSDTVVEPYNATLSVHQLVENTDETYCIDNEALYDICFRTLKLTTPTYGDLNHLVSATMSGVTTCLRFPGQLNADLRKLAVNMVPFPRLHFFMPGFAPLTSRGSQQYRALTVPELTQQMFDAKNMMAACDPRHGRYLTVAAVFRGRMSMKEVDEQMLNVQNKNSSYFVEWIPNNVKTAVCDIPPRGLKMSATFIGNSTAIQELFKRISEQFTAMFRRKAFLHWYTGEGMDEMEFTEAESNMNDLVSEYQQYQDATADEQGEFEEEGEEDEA

Row | Structure (SMILES) | cell-free tubulin polymerization assay (absorbance at 340 nm), inhibition [1] | cell-free tubulin polymerization assay (absorbance at 340 nm), enhancement [2]
1 | COc1ccc(S(=O)(=O)Nc2ccccc2-c2ccc(C#N)cc2)cc1 [LTP-1] | LTP-1 acted like vincristine, to inhibit tubulin polymerization in a concentration-dependent manner | –
2 | CC(=O)O[C@H]1C(=O)[C@@]2(C)[C@H]([C@H](OC(=O)c3ccccc3)[C@]3(O)C[C@H](OC(=O)[C@H](O)[C@@H](NC(=O)c4ccccc4)c4ccccc4)C(C)=C1C3(C)C)[C@]1(OC(C)=O)CO[C@@H]1C[C@@H]2O [paclitaxel] | – | Paclitaxel enhanced microtubule assembly and mitotic spindle formation, whereas LTP-1 and vincristine disrupted microtubule formation (Fig. 2A)
